Reference: patent US20260226037A1, “MICROTUBULE TARGETING AGENTS” (ARIEL SCIENTIFIC INNOVATIONS LTD., priority 2022, published 2026)
Read-outs that look alike come from different tables or passages of the source. Where a SMILES comes first, the peptide text is derived from it. [ ]: non-standard residue; d: D form. The star is where a group is joined. Dolaproine = CO[C@@H]([C@@H]1CCCN1)[C@@H](C)C(=O)O; Dil = CC[C@H](C)[C@H](NC)[C@@H](CC(=O)O)OC; X1 = C[C@@H](N*)[C@@H](O)c1ccccc1; NMeV = CN[C@H](C(=O)O)C(C)C

Legend:
RPMI-MR20 cells = assay: XTT cytotoxicity, RPMI-MR20; format: cell-based; conditions: for IC50: RPMI-MR20, mitoxantrone resistant, read-out: IC50; for IC50 ratio between resistant and non-resistant cells: RPMI-MR20 / RPMI 8226
Experimental: (§1) The cytotoxic activity of the novel family was evaluated against various tumor cells, including myeloma cells, acute lymphoblastic leukemia cells, acute monocytic leukemia cells, chronic myelogenous leukemia cells, pancreatic cancer cells, breast cancer cells, uterine sarcoma cells, cervix adenocarcinoma cells, ovary cancer cells, melanoma cells, osteosarcoma cells, prostate cancer cells, lung cancer cells, neuroblastoma cells and colorectal adenocarcinoma cells by XTT assay.

N6/ADR cells = assay: XTT cytotoxicity, N6/ADR; format: cell-based; conditions: for IC50 ratio between resistant and non-resistant cells: N6/ADR / NALM6; for IC50: N6/ADR, acute lymphoblastic leukemia, P-gp overexpression, read-out: IC50; for sensitivity to Pgp glycoprotein overexpression: N6/ADR vs NALM6 dose response
Experimental: as §1
(§2) Most tubulin-binding anticancer drugs currently used in the clinic are substrates for Pgp effux pump. […] The inventors tested the viability of NALM6 acute lymphoblastic leukemia cell line (ALL) and its corresponding doxorubicin resistant N6/ADR cell line that overexpress Pgp glycoprotein and has cross-resistance to vincristine.

MM1.R cells = assay: XTT cytotoxicity, MM1.R; format: cell-based; conditions: for IC50 ratio between resistant and non-resistant cells: MM1.R / MM1.S; for IC50: MM1.R, multiple myeloma, dexamethasone resistant, read-out: IC50
Experimental: as §1

MES-SA cells = assay: XTT cytotoxicity, MES-SA; format: cell-based; conditions: poorly differentiated uterine sarcoma, non-resistant
Experimental: as §1

RPMI-DOX40 cells = assay: XTT cytotoxicity, RPMI-DOX40; format: cell-based; conditions: for IC50: RPMI-DOX40, multiple myeloma, P-gp overexpression, read-out: IC50; for IC50 ratio between resistant and non-resistant cells: RPMI-DOX40 / RPMI 8226
Experimental: as §1

MM1.S cells = assay: XTT cytotoxicity, MM1.S; format: cell-based; conditions: multiple myeloma, non-resistant, read-out: IC50
Experimental: as §1

purified tubulin = assay: Tubulin polymerization, cell-free assay; format: biochemical; conditions: tubulin 2.00 mg/mL; 1, 15 and 30 μM; 37° C., 100 min; vs vehicle
Experimental: The effect of the compounds on their ability to inhibit tubulin polymerization, was tested against a vehicle control by evaluating polymerization of purified tubulin in a cell-free assay where tubulin (2.00 mg/mL) was exposed to vehicle control or 1, 15 and 30 μM of the compounds (n=2). Polymerizations were tracked by an increase in fluorescence excitation wavelength is 340-360 nm and emission wavelength at 410-460 nm. Fluorescence was monitored at 37° C. every 30 sec for 100 min.

RPMI8226 cells = assay: Cell cycle distribution by flow cytometry; format: cell-based; conditions: 6 hours; IC50, IC50x2.5 and IC50x5 concentrations
Experimental: Cell cycle arrest is a shared consequence of MTAs treatment. The effects of cell cycle distribution were determined in RPMI8226 cells treated for 6 and 18 hours with a range of concentrations of the molecules. The cells were stained with propidium iodide and cell cycle distribution was measured using a cytoFLEX flow cytometer.

RPMI-LR5 cells = assay: XTT cytotoxicity, RPMI-LR5; format: cell-based; conditions: for IC50: RPMI-LR5, multiple myeloma, melphalan resistant, read-out: IC50; for IC50 ratio between resistant and non-resistant cells: RPMI-LR5 / RPMI 8226
Experimental: as §1

NALM6 cells = assay: XTT cytotoxicity, NALM6; format: cell-based; conditions: NALM6, acute lymphoblastic leukemia, non-resistant, read-out: IC50
Experimental: as §1, §2

MES-SA/DX5 cells = assay: XTT cytotoxicity, MES-SA/DX5; format: cell-based; conditions: for IC50: MES-SA/DX5, uterine sarcoma, P-gp overexpression; for IC50 ratio between resistant and non-resistant cells: MES-SA/DX5 / MES-SA; for effectiveness in subline overexpressing PgP: MES-SA/DX5 vs MES-SA
Experimental: as §1

MCF7 cells = assay: XTT cytotoxicity, MCF7; format: cell-based; conditions: Homo sapiens; MCF7, breast adenocarcinoma, non-resistant
Experimental: as §1

MCF7-VP cells = assay: XTT cytotoxicity, MCF7-VP; format: cell-based; conditions: for IC50: Homo sapiens, MCF7-VP, breast adenocarcinoma, MRP overexpression; for IC50 ratio between resistant and non-resistant cells: MCF7-VP / MCF7
Experimental: as §1

[1] = system: colchicine binding site on tubulin protein; assay: EBI competition assay, RPMI-8226 cells; format: cell-based; conditions: for prevention of covalent binding of EBI to the colchicine binding site: RPMI-8226 living cells
RPMI 8226 cells = assay: XTT cytotoxicity, RPMI 8226; format: cell-based; conditions: RPMI 8226, multiple myeloma, non-resistant, read-out: IC50
Experimental: as §1

A2780 cells = assay: XTT cytotoxicity, A2780; format: cell-based; conditions: A2780, ovarian carcinoma, non-resistant
Experimental: as §1

A2780ADR cells = assay: XTT cytotoxicity, A2780ADR; format: cell-based; conditions: for IC50 ratio between resistant and non-resistant cells: A2780ADR / A2780; for IC50: A2780ADR, ovarian carcinoma, resistant
Experimental: as §1

NCI-H69 VCR/R cells = assay: XTT cytotoxicity, NCI-H69 VCR/R; format: cell-based; conditions: for IC50 ratio between resistant and non-resistant cells: NCI-H69 VCR/R / NCI-H69; for IC50: NCI-H69 VCR/R, vincristine resistant
Experimental: as §1

NCI-H69 cells = assay: XTT cytotoxicity, NCI-H69; format: cell-based; conditions: NCI-H69, small cell lung carcinoma, non-resistant
Experimental: as §1

Row | Compound | IC50 (RPMI-MR20 cells) [nM] | IC50 ratio between resistant and non-resistant cells (RPMI-MR20 cells) | IC50 ratio between resistant and non-resistant cells (N6/ADR cells) | IC50 (N6/ADR cells) [nM] | IC50 ratio between resistant and non-resistant cells (MM1.R cells) | IC50 (MM1.R cells; MM.1R) [nM] | IC50 (MES-SA cells; Homo sapiens) [nM] | IC50 (RPMI-DOX40 cells) [nM] | IC50 ratio between resistant and non-resistant cells (RPMI-DOX40 cells) | IC50 (MM1.S cells; Homo sapiens) [nM] | rate of tubulin polymerization (purified tubulin) | IC50 (RPMI-LR5 cells) [nM] | IC50 ratio between resistant and non-resistant cells (RPMI-LR5 cells) | IC50 (NALM6 cells; Homo sapiens, NALM-6) [nM] | IC50 (MES-SA/DX5 cells; Homo sapiens) [nM] | IC50 ratio between resistant and non-resistant cells (MES-SA/DX5 cells) | IC50 (MCF7 cells) [nM] | IC50 (MCF7-VP cells) [nM] | IC50 ratio between resistant and non-resistant cells (MCF7-VP cells) | IC50 (RPMI 8226 cells; Homo sapiens) [nM] | further results
1 | CCCCCOC(=O)c1[nH]c2c(c1C)C(O)CC(c1ncco1)C2 (centres unmarked) [SMS108, pentyl-4-hydroxy-3-methyl-6-(oxazol-2-yl)-4,5,6,7-tetrahydro-1H-indole-2-carboxylate] | 388 | 0.752 | 0.957 | 330 | 1.633 | 1200 | 700 | 498 | 0.965 | 735 | inhibited the rate of tubulin polymerization in a concentration-dependent manner | 427 | 0.828 | 345 | 490 | 0.700 | 7120 | 5900 | 0.828 | 516 | cell cycle arrest (RPMI8226 cells): cell cycle arrest in G2M phase; prevention of covalent binding of EBI to the colchicine binding site [1]: did not prevent the covalent binding of EBI to the colchicine binding site
2 | Cc1c(C(=O)OCCCCO)[nH]c2c1C(=O)CC(c1ncco1)C2 (centres unmarked) [SMS096, 4-hydroxybutyl 3-methyl-6-(oxazol-2-yl)-4-oxo-4,5,6,7-tetrahydro-1H-indole-2-carboxylate] | > 1800 | >1.647 | 0.087 | 54 | 1.447 | 1080 | 1240 | 1180 | 1.081 | 748 | inhibited the rate of tubulin polymerization in a concentration-dependent manner | 1130 | 1.031 | 624 | 1430 | 1.153 | 7840 | 5740 | 0.732 | 1090 | cell cycle arrest (RPMI8226 cells): cell cycle arrest in G2M phase; relative affinity for the colchicine binding site ([1]; RPMI-8226 cells, EBI competition): higher affinity than SMS001, SMS182, SMS088 and SMS229; prevention of covalent binding of EBI to the colchicine binding site [1]: prevented the covalent binding of EBI to the colchicine binding site
3 | CC[C@H](C)[C@@H]([C@@H](CC(=O)N1CCC[C@H]1[C@H](OC)[C@@H](C)C(=O)N[C@H](C)[C@@H](O)c1ccccc1)OC)N(C)C(=O)[C@@H](NC(=O)[C@@H](NC)C(C)C)C(C)C [MMAE, reference compound] (H-[NMeV]V[Dil][Dolaproine]-X1) |  |  | 2.667 | 0.8 |  |  |  | > 15 | >6.000 |  |  | > 15 | >6.000 |  |  | 165.037 |  |  |  |  | IC50 (A2780 cells): 0.8 nM; sensitivity to Pgp glycoprotein overexpression (N6/ADR cells): sensitive to PgP; IC50 ratio between resistant and non-resistant cells (A2780ADR cells): 31.250; IC50 (A2780ADR cells): 25 nM; IC50 (MM1.R cells): < 2.5 nM; IC50 (MES-SA cells): 16 nM; IC50 ratio between resistant and non-resistant cells (NCI-H69 VCR/R cells): 0.667; IC50 (NCI-H69 VCR/R cells): 2 nM; IC50 (MM1.S cells): < 2.5 nM; IC50 (NALM6 cells): 0.3 nM; IC50 (MES-SA/DX5 cells): 2740 nM; effectiveness in subline overexpressing PgP (MES-SA/DX5 cells): less effective in the subline overexpressing PgP; IC50 (NCI-H69 cells): 3 nM; IC50 (RPMI 8226 cells): < 2.5 nM
4 | CC[C@]1(O)C[C@H]2CN(CCc3c([nH]c4ccccc34)[C@@](C(=O)OC)(c3cc4c(cc3OC)N(C=O)[C@H]3[C@@](O)(C(=O)OC)[C@H](OC(C)=O)[C@]5(CC)C=CCN6CC[C@]43[C@@H]65)C2)C1 [Vincristine, reference compound] | 0.3 | 0.158 | 10.909 | 12 | 1.063 | 1.7 | 999 | > 10 | >5.263 | 1.6 |  | > 4 | >2.105 | 1.1 | 3680 | 3.684 | 78 | 220 | 2.821 | 1.9 | IC50 (A2780 cells; Homo sapiens): 3 nM; sensitivity to Pgp glycoprotein overexpression (N6/ADR cells): sensitive to PgP; IC50 ratio between resistant and non-resistant cells (A2780ADR cells): 77.000; resistance of cells to treatment (A2780ADR cells; A2780ADR ovary carcinoma cells): resistant to vincristine; IC50 (A2780ADR cells; A2780 ADR): 231 nM; IC50 (NCI-H69 VCR/R cells; Homo sapiens): > 1000 nM; IC50 ratio between resistant and non-resistant cells (NCI-H69 VCR/R cells): >41.667; resistance of cells to treatment (NCI-H69 VCR/R cells; NCI-H69 VCR/R lung carcinoma cells): resistant to vincristine; effectiveness in subline overexpressing PgP (MES-SA/DX5 cells): less effective in the subline overexpressing PgP; IC50 (NCI-H69 cells; Homo sapiens): 24 nM
5 | Cc1c(C(=O)OCCCCO)oc2c1C(=O)CC(c1ncco1)C2 (centres unmarked) [SMS229, 4-hydroxybutyl-3-methyl-6-(oxazol-2-yl)-4-oxo-4,5,6,7-tetrahydrobenzofuran-2-carboxylate] | 1550 | 1.916 | 1.136 | 670 | >0.779 | > 1600 | 4560 | 933 | 1.155 | 2050 | inhibited the rate of tubulin polymerization in a concentration-dependent manner | 958 | 1.186 | 590 | 3190 | 0.700 | 33300 | 12000 | 0.360 | 808 | prevention of covalent binding of EBI to the colchicine binding site [1]: prevented the covalent binding of EBI to the colchicine binding site
